Patent publication US12390419B2, “Formulations of (R)-2-amino-3-phenylpropyl carbamate” (AXSOME MALTA LTD., priority 2016, dated 2025)
Values after ≈ are worked out from the molar mass of the structure shown.

Key:
[1] = Solubility of APC in 0.2M phosphate buffers; type: physicochemical
[2] = Dissolution of coated APC tablets in three media (apparatus 1 basket, 100 rpm, 900 ml, 37° C.); type: physicochemical
Experimental: A substantial concern was the effect of media pH. Although APC will be developed as an immediate release product, FDA guidances require comparison of profiles in three media including pH 6.8 (representing intestinal pH). […] The media used were 0.1 N HCl pH 1.2, acetate buffer pH 4.5, and phosphate buffer pH 6.8. The dissolution study was carried using 12 tablets per dose, apparatus 1 (basket), 900 ml media volume, 37° C., 100 rpm. The tablets were coated with Opadry white polymer system.

NC(=O)OC[C@H](N)Cc1ccccc1 [APC, (R)-2-amino-3-phenylpropyl carbamate]
solubility ([1]; 0.2M phosphate buffer, pH 6.8, aqueous buffer, thermodynamic from solid): 26 mg/mL (≈ 134 mM)
solubility ([1]; aqueous buffer, thermodynamic from solid, 0.2M phosphate buffer pH 5.33, pH after equilibration 4.25): 542 mg/mL (≈ 2790 mM)
solubility ([1]; aqueous buffer, thermodynamic from solid, 0.2M phosphate buffer pH 5.95, pH after equilibration 4.78): 525 mg/mL (≈ 2710 mM)
solubility ([1]; aqueous buffer, thermodynamic from solid, 0.2M phosphate buffer pH 6.97, pH after equilibration 6.76): 26.6 mg/mL (≈ 137 mM)
solubility ([1]; aqueous buffer, thermodynamic from solid, 0.2M phosphate buffer pH 8.02, pH after equilibration 7.47): 22.5 mg/mL (≈ 116 mM)
solubility ([1]; aqueous buffer, thermodynamic from solid, 0.2M phosphate buffer pH 8.99, pH after equilibration 7.55): 22.4 mg/mL (≈ 115 mM)
solubility ([1]; pH 4.22, thermodynamic from solid, pH of buffer N/A (water), pH after equilibration 4.22): 534 mg/mL (≈ 2750 mM)
solubility ([1]; water or acidic media, water, thermodynamic from solid): 530 mg/mL (≈ 2730 mM)
Percent release ([2]; 37.5 mg tablet, pH 1.2, 5 min): 71.9%
Percent release ([2]; 37.5 mg tablet, pH 1.2, 10 min): 99.3%
Percent release ([2]; 37.5 mg tablet, pH 1.2, 15 min): 99.7%
Percent release ([2]; 37.5 mg tablet, pH 4.5, 5 min): 76.8%
Percent release ([2]; 37.5 mg tablet, pH 4.5, 10 min): 101.8%
Percent release ([2]; 37.5 mg tablet, pH 4.5, 15 min): 102.1%
Percent release ([2]; 37.5 mg tablet, pH 6.8, 5 min): 69.6%
Percent release ([2]; 37.5 mg tablet, pH 6.8, 10 min): 100.2%
Percent release ([2]; 37.5 mg tablet, pH 6.8, 15 min): 100.7%
Percent release ([2]; 75 mg tablet, pH 1.2, 5 min): 62.9%
Percent release ([2]; 75 mg tablet, pH 1.2, 10 min): 98.7%
Percent release ([2]; 75 mg tablet, pH 1.2, 15 min): 99.4%
Percent release ([2]; 75 mg tablet, pH 4.5, 5 min): 53.9%
Percent release ([2]; 75 mg tablet, pH 4.5, 10 min): 100.8%
Percent release ([2]; 75 mg tablet, pH 4.5, 15 min): 102.5%
Percent release ([2]; 75 mg tablet, pH 6.8, 5 min): 57.6%
Percent release ([2]; 75 mg tablet, pH 6.8, 10 min): 99.4%
Percent release ([2]; 75 mg tablet, pH 6.8, 15 min): 100.2%
Percent release ([2]; 150 mg tablet, pH 1.2, 5 min): 46.8%
Percent release ([2]; 150 mg tablet, pH 1.2, 10 min): 96.9%
Percent release ([2]; 150 mg tablet, pH 1.2, 15 min): 98.4%
Percent release ([2]; 150 mg tablet, pH 4.5, 5 min): 42.6%
Percent release ([2]; 150 mg tablet, pH 4.5, 10 min): 97.7%
Percent release ([2]; 150 mg tablet, pH 4.5, 15 min): 100.4%
Percent release ([2]; 150 mg tablet, pH 6.8, 5 min): 42.4%
Percent release ([2]; 150 mg tablet, pH 6.8, 10 min): 97.4%
Percent release ([2]; 150 mg tablet, pH 6.8, 15 min): 100.7%
Percent release ([2]; 300 mg tablet, pH 1.2, 5 min): 35.0%
Percent release ([2]; 300 mg tablet, pH 1.2, 10 min): 91.2%
Percent release ([2]; 300 mg tablet, pH 1.2, 15 min): 99.5%
Percent release ([2]; 300 mg tablet, pH 4.5, 5 min): 30.0%
Percent release ([2]; 300 mg tablet, pH 4.5, 10 min): 89.1%
Percent release ([2]; 300 mg tablet, pH 4.5, 15 min): 99.8%
Percent release ([2]; 300 mg tablet, pH 6.8, 5 min): 31.6%
Percent release ([2]; 300 mg tablet, pH 6.8, 10 min): 89.9%
Percent release ([2]; 300 mg tablet, pH 6.8, 15 min): 100.2%
